Consider 22 compounds from patent publication EP2093288A1, “NOVEL DIPEPTIDE-DIGESTING ENZYME, METHOD OF PRODUCING THE SAME, METHOD OF ASSAYING GLYCATED PROTEIN BY USING THE DIPEPTIDE-DIGESTING ENZYME AND REAGENT COMPOSITION TO BE USED THEREIN” (Amano Enzyme Inc., priority 2006, dated 2008).

Where two headings read alike, the source gives them in different places. Non-standard residues stand in square brackets, D forms with d. Residues, ends and D or L forms follow the SMILES beside them. *: point of attachment. Sta = CC(C)C[C@H](N)[C@@H](O)CC(=O)O; Isovaleryl = CC(C)CC(=O)*

What all share (assay type): biochemical, Sphingopyxis chilensis No. 0522
In experiment [1] the test system is dipeptide-degrading enzyme. Kind of experiment: Influence of metal ions and the like on enzymatic activity (dipeptide-degrading activity, Example 3 method). How it is done: (§1) The dipeptide-degrading activity may be measured by quantifying Fru-Val or histidine formed upon the degradation of Fru-Val-His. The method for quantifying histidine is described below. The amount of enzyme degrading 1 µmol of Fru-Val-His in 1 minute is defined as 1 unit of enzymatic activity (U). The reagents (1), (2), and (3), and a substrate solution used for measuring the activity were prepared as described below.
(§2) Substrate solution: Fru-Val-His (Peptide Institute Inc.) was dissolved in 100 mM of a MOPS buffer (pH 7.0), thus obtaining 40 mM of substrate solution.
0.02 mL of 1.40 mM substrate solution and 0.16 mL of the reagent (1) were accurately dispensed and mixed, and preincubated at 37°C for 5 minutes. Thereafter, 0.02 mL of enzyme solution was accurately added to and mixed with the mixture, and allowed to react at 37°C. As a blank test, 0.02 mL of the reagent (1) was added in place of the enzyme solution. After a lapse of 10 minutes, 0.8 mL of the reagent (3) was accurately added to and mixed with the mixture, and allowed to react at 37°C. After a lapse of 15 minutes, the absorbance at 505 nm was measured, and the dipeptide-degrading activity was calculated according to the calculation formula described below. The enzyme solution was appropriately diluted with the reagent (1) such that ΔABS = (As-Ab) ≤ 0.50 Abs, and used as the sample. The symbols and numerical values in the calculation formula represents the followings. • As: absorbance of enzyme solution • Ab: absorbance of blank solution • ΔABS: As - Ab • 12.88: millimole absorptivity (mmol/L/cm) of quinone pigment at 505 nm • 10: reaction time (min) • 2: coefficient representing that one molecule of quinone pigment is formed from two molecules of H2O2 • 1: light path length (cm) • 1.0: total amount of reaction solution (mL) • 0.02: Amount of enzyme solution used for reaction (mL) • n: enzyme solution dilution ratio
Calculation formula Activity(U/mL) = ΔABS/10/12.88 × 2 × 1 × 1.0/0.02 × n [formula]
The enzymatic activity was measured in the same manner as Example 3, except that the reagent (1) was replaced with various metals and the like at specified concentrations (Table 2) and a 100 mM PIPES buffer (pH 6.2) containing 0.1% Triton X-100.

For experiment [2], the system named is dipeptide-degrading enzyme. Kind of experiment: Substrate specificity: dipeptide-degrading activity measurement of Example 3 with changed substrate. To be noted: substrate changed from Fru-Val-His; 37°C, pH 6.2. How it is done:
as §1, §2
0.02 mL of 1.40 mM substrate solution and 0.16 mL of the reagent (1) were accurately dispensed and mixed, and preincubated at 37°C for 5 minutes. Thereafter, 0.02 mL of enzyme solution was accurately added to and mixed with the mixture, and allowed to react at 37°C. As a blank test, 0.02 mL of the reagent (1) was added in place of the enzyme solution. After a lapse of 10 minutes, 0.8 mL of the reagent (3) was accurately added to and mixed with the mixture, and allowed to react at 37°C. After a lapse of 15 minutes, the absorbance at 505 nm was measured, and the dipeptide-degrading activity was calculated according to the calculation formula described below. The enzyme solution was appropriately diluted with the reagent (1) such that ΔABS = (As-Ab) ≤ 0.50 Abs, and used as the sample. […]

Experiment [3] deals with dipeptide-degrading enzyme. Kind of experiment: Reactivity in actual measurement system for glycosylated dipeptide (Example 15 method, reagents E, B, C, absorbance at 555 nm). On the procedure:
A glycosylated dipeptide was measured using a glycosylated hemoglobin β chain dipeptide Fru-Val-His (Peptide Institute Inc.). The reagents B and C were prepared according to the following recipes, and used for the study. Since the specimen was a glycosylated dipeptide, no protease was necessary. Therefore, the reagent E used herein had the same composition with the reagent A except that no protease was used. However, the glycosylated dipeptide may be quantified only with the reagents B and C without using the reagent E. The dipeptide-degrading enzyme used herein is the purified enzyme obtained in Example 6.
40 mM Fru-Val-His was prepared, and diluted with a 100 mM MOPS buffer (pH 7.0), thus making 0.1, 0.2, 0.4, 0.6, and 0.8 mM Fru-Val-His solutions. To 0.01 mL each of the diluting solutions, 0.04 mL of the reagent E was added, and allowed to react at 37°C for 5 minutes. 0.1 mL of the reagent B was added to each of the reaction liquids, and allowed to react at 37°C for 10 minutes. Thereafter, 0.9 mL of the reagent C was added to each of the reaction liquids, and allowed to react at 37°C. The absorbance at 555 nm was measured, and the increase (ΔOD) of the absorbance 5 minutes after initiation of the reaction was determined. […]

Where [4] appears, read: Conc. 2mM, 100 mM PIPES buffer (pH 6.2), 0.1% Triton X-100, None = 100.
Where [5] appears, read: Conc. 50mM, 100 mM PIPES buffer (pH 6.2), 0.1% Triton X-100, None = 100.
Setting [6] is: Conc. 1mM, 100 mM PIPES buffer (pH 6.2), 0.1% Triton X-100, None = 100.

On to `c1cnc2c(c1)ccc1cccnc12` [o-Phenanthroline], for which the “Relative activity (%)” value in experiment [1] (setting [4]) worked out at 0%.

Turning to `CC(C)CC(=O)N[C@H](C(=O)N[C@H](C(=O)N[C@@H](CC(C)C)[C@@H](O)CC(=O)N[C@@H](C)C(=O)N[C@@H](CC(C)C)[C@@H](O)CC(=O)O)C(C)C)C(C)C` [Pepstatin A] (Isovaleryl-VV[Sta]A[Sta]-OH), in experiment [1] (Conc. 10 µg/ml, 100 mM PIPES buffer (pH 6.2), 0.1% Triton X-100, None = 100), the “Relative activity (%)” value was determined as 100%.

As for NH4Cl, the “Relative activity (%)” value in experiment [1] (setting [5]) is 85%.

Regarding `O=P1([O-])OP(=O)([O-])OP(=O)([O-])OP(=O)([O-])OP(=O)([O-])OP(=O)([O-])O1.[Na+].[Na+].[Na+].[Na+].[Na+].[Na+]` [Sodium Hexametaphosphate], the “Relative activity (%)” value in experiment [1] (setting [4]) was found to be 4%.

Turning to `O=C(O)CI` [Monoiode acetate], the “Relative activity (%)” value in experiment [1] (pH 6.2, 2000 µM) came to 111%.

With `O=C(O)CN(CCN(CC(=O)O)CC(=O)O)CC(=O)O` [EDTA], the “influences of the metal ions and the like on the enzymatic activity” value (“influences” for short) in experiment [1] is recorded as “deactivated”. Moreover, the “Relative activity (%)” value in experiment [1] (pH 6.2, 5000 µM) turned out to be 1%.

Consider `O=C(O)CS` [Thioglycolic acid], for which the “Relative activity (%)” value in experiment [1] (setting [4]) was found to be 3%.

As for `c1ccc(-c2ccccn2)nc1` [α, α'-Dipyridyl], the “Relative activity (%)” value in experiment [1] (setting [4]) stood at 1%. For the same compound, the “influences” value in experiment [1] (summary in words of Table 2) is given as “deactivated”.

For `CC(C)C[C@H](NC(=O)[C@@H](NCC(=O)[C@@H](O)[C@H](O)[C@H](O)CO)C(C)C)C(=O)O` [Fru-Val-Leu, fructosyl valyl leucine], in experiment [2], the “activity value of the dipeptide-degrading enzyme for the substrate, relative to that for Fru-Val-His” value worked out at 4.9%. Moreover, the “absorbance change converted into the Fru-Val-His concentration” value in experiment [3] (0.8 mM substrate, converted using Fig. 7) stood at 0.14 mM. In experiment [3] (for the 0.8 mM substrate, relative to Fru-Val-His), this compound displayed a reactivity of 18%.

On to `O=S(=O)(F)Cc1ccccc1` [PMSF], for which the “Relative activity (%)” value in experiment [1] (setting [4]) is given as 97%.

Take `[Cl][Cu][Cl]` [CuCl2]: in experiment [1] (setting [6]), the “Relative activity (%)” value was 75%.

Turning to `[Cl][Mn][Cl]` [MnCl2], the “Relative activity (%)” value in experiment [1] (setting [6]) is listed as 137%.

Turning to `[Cl][Ni][Cl]` [NiCl2], the “Relative activity (%)” value in experiment [1] (setting [6]) came out at 156%.

Consider `[Ba+2].[Cl-].[Cl-]` [BaCl2], for which the “Relative activity (%)” value in experiment [1] (setting [6]) is given as 105%.

Consider `OCCS` [2-Mercaptoethanol], for which the “Relative activity (%)” value in experiment [1] (setting [4]) turned out to be 11%.

As to `CCCCCCCCCCCCOS(=O)(=O)O` [SDS], the “Relative activity (%)” value in experiment [1] (setting [4]) was determined as 9%.

As to KCl, in experiment [1] (setting [5]), the “Relative activity (%)” value was 97%.

Take `[Cl-].[Cl-].[Co+2]` [CoCl2]: the “Relative activity (%)” value in experiment [1] (setting [6]) was determined as 676%. The “influences” value in experiment [1] (summary in words of Table 2) is “activated”.

For the compound `[Cl-].[Cl-].[Mg+2]` [MgCl2], in experiment [1] (setting [6]), the “Relative activity (%)” value is given as 261%. Further, the “influences” value in experiment [1] (summary in words of Table 2) is “activated”.

In the case of `[Cl-].[Cl-].[Zn+2]` [ZnCl2], the “Relative activity (%)” value in experiment [1] (setting [6]) is listed as 257%. The “influences” value in experiment [1] (summary in words of Table 2) was “activated”.

With `[Ca+2].[Cl-].[Cl-]` [CaCl2], in experiment [1] (setting [6]), the “Relative activity (%)” value is listed as 162%.

Take NaCl: in experiment [1] (pH 6.2, 50000 µM), the “Relative activity (%)” value stood at 98%.
